Measurements: ChEMBL document CHEMBL1141575, “Preparation and in vitro biological evaluation of tetrapyrrole ethanolamide derivatives as potential anticancer agents” (Bioorg Med Chem Lett, 2008)

Key:
[1] = tested on: SiHa; assay: Survival of human SIHA cells at 1 uM under deem light after 96 hrs by MTT assay relative to control; assay type: functional; settings: read-out: Survival
[2] = tested on: Raji; assay: Survival of human Raji cells at 100 uM under deem light after 96 hrs by MTT assay relative to control; assay type: functional; settings: read-out: Survival
[3] = tested on: Daudi; assay: Cytotoxicity against human Daudi cells under deem light after 96 hrs by MTT assay; assay type: functional, cell-based
[4] = Photohemolysis in human RBC at 125 nM under exposure to light for 10 mins; assay type: ADME, cell-based, Erythrocyte; settings: human red blood cells, read-out: Activity
[5] = tested on: K562; assay: Cytotoxicity against human K562 cells under deem light after 96 hrs by MTT assay; assay type: functional, cell-based; settings: K562, 96 h
[6] = Cytotoxicity against human MDA-MB cells under deem light after 96 hrs by MTT assay; assay type: functional, cell-based
[7] = Survival of human H209 cells at 100 uM under deem light after 96 hrs by MTT assay relative to control; assay type: functional; settings: NCI-H209, 96 h, read-out: Survival
[8] = Survival of human MDA-MB cells at 0.1 uM under deem light after 96 hrs by MTT assay relative to control; assay type: functional; settings: read-out: Survival
[9] = tested on: SiHa; assay: Survival of human SIHA cells at 100 uM under deem light after 96 hrs by MTT assay relative to control; assay type: functional; settings: read-out: Survival
[10] = tested on: K562; assay: Survival of human K562 cells at 1 uM under deem light after 96 hrs by MTT assay relative to control; assay type: functional; settings: K562, 96 h, read-out: Survival
[11] = tested on: K562; assay: Survival of human K562 cells at 100 uM under deem light after 96 hrs by MTT assay relative to control; assay type: functional; settings: K562, 96 h, read-out: Survival
[12] = Survival of human MDA-MB cells at 100 uM under deem light after 96 hrs by MTT assay relative to control; assay type: functional; settings: read-out: Survival
[13] = tested on: Raji; assay: Survival of human Raji cells at 0.1 uM under deem light after 96 hrs by MTT assay relative to control; assay type: functional; settings: read-out: Survival
[14] = Survival of human H209 cells at 50 uM under deem light after 96 hrs by MTT assay relative to control; assay type: functional; settings: NCI-H209, 96 h, read-out: Survival
[15] = tested on: K562; assay: Survival of human K562 cells at 15.7 uM under deem light after 96 hrs by MTT assay relative to control; assay type: functional; settings: K562, 96 h, read-out: Survival
[16] = tested on: Raji; assay: Survival of human Raji cells at 50 uM under deem light after 96 hrs by MTT assay relative to control; assay type: functional; settings: read-out: Survival
[17] = Survival of human MDA-MB cells at 15.7 uM under deem light after 96 hrs by MTT assay relative to control; assay type: functional; settings: read-out: Survival
[18] = tested on: HeLa; assay: Survival of human HeLa cells at 1 uM under deem light after 96 hrs by MTT assay relative to control; assay type: functional; settings: read-out: Survival
[19] = Survival of human H209 cells at 1 uM under deem light after 96 hrs by MTT assay relative to control; assay type: functional; settings: NCI-H209, 96 h, read-out: Survival
[20] = tested on: NCI-H69; assay: Survival of human H69 cells at 100 uM under deem light after 96 hrs by MTT assay relative to control; assay type: functional; settings: NCI-H69, 96 h, read-out: Survival
[21] = Survival of human MDA-MB cells at 50 uM under deem light after 96 hrs by MTT assay relative to control; assay type: functional; settings: read-out: Survival
[22] = Survival of human 2780.9S cells at 15.7 uM under deem light after 96 hrs by MTT assay relative to control; assay type: functional; settings: read-out: Survival
[23] = tested on: Raji; assay: Survival of human Raji cells at 1 uM under deem light after 96 hrs by MTT assay relative to control; assay type: functional; settings: read-out: Survival
[24] = Survival of human 2780.9S cells at 0.1 uM under deem light after 96 hrs by MTT assay relative to control; assay type: functional; settings: read-out: Survival
[25] = tested on: HeLa; assay: Survival of human HeLa cells at 0.1 uM under deem light after 96 hrs by MTT assay relative to control; assay type: functional; settings: read-out: Survival
[26] = Cytotoxicity against human 2780.9S cells under deem light after 96 hrs by MTT assay; assay type: functional, cell-based
[27] = tested on: NCI-H69; assay: Survival of human H69 cells at 0.1 uM under deem light after 96 hrs by MTT assay relative to control; assay type: functional; settings: NCI-H69, 96 h, read-out: Survival
[28] = tested on: SiHa; assay: Survival of human SIHA cells at 50 uM under deem light after 96 hrs by MTT assay relative to control; assay type: functional; settings: read-out: Survival
[29] = Survival of human H209 cells at 15.7 uM under deem light after 96 hrs by MTT assay relative to control; assay type: functional; settings: NCI-H209, 96 h, read-out: Survival
[30] = Survival of human 2780.9S cells at 1 uM under deem light after 96 hrs by MTT assay relative to control; assay type: functional; settings: read-out: Survival
[31] = tested on: NCI-H69; assay: Survival of human H69 cells at 1 uM under deem light after 96 hrs by MTT assay relative to control; assay type: functional; settings: NCI-H69, 96 h, read-out: Survival
[32] = tested on: Raji; assay: Cytotoxicity against human Raji cells under deem light after 96 hrs by MTT assay; assay type: functional, cell-based
[33] = Photohemolysis in human RBC in absence of light; assay type: ADME, cell-based; settings: erythrocyte
[34] = Photohemolysis in human RBC assessed as concentration required to 50% hemolysis under light exposure for 10 mins; assay type: ADME, cell-based, Erythrocyte; settings: human red blood cells, read-out: Activity
[35] = tested on: Raji; assay: Survival of human Raji cells at 15.7 uM under deem light after 96 hrs by MTT assay relative to control; assay type: functional; settings: read-out: Survival
[36] = tested on: SiHa; assay: Cytotoxicity against human SIHA cells under deem light after 96 hrs by MTT assay; assay type: functional, cell-based
[37] = Survival of human H209 cells at 0.1 uM under deem light after 96 hrs by MTT assay relative to control; assay type: functional; settings: NCI-H209, 96 h, read-out: Survival
[38] = tested on: K562; assay: Survival of human K562 cells at 50 uM under deem light after 96 hrs by MTT assay relative to control; assay type: functional; settings: K562, 96 h, read-out: Survival
[39] = tested on: HeLa; assay: Cytotoxicity against human HeLa cells under deem light after 96 hrs by MTT assay; assay type: functional, cell-based
[40] = tested on: NCI-H69; assay: Cytotoxicity against human H69 cells under deem light after 96 hrs by MTT assay; assay type: functional, cell-based; settings: NCI-H69, 96 h
[41] = tested on: HeLa; assay: Survival of human HeLa cells at 50 uM under deem light after 96 hrs by MTT assay relative to control; assay type: functional; settings: read-out: Survival
[42] = tested on: NCI-H69; assay: Survival of human H69 cells at 50 uM under deem light after 96 hrs by MTT assay relative to control; assay type: functional; settings: NCI-H69, 96 h, read-out: Survival
[43] = Photohemolysis in human RBC assessed as concentration required to 50% hemolysis under light exposure for 5 mins; assay type: ADME, cell-based, Erythrocyte; settings: human red blood cells, read-out: Activity
[44] = Survival of human 2780.9S cells at 50 uM under deem light after 96 hrs by MTT assay relative to control; assay type: functional; settings: read-out: Survival
[45] = tested on: HeLa; assay: Survival of human HeLa cells at 100 uM under deem light after 96 hrs by MTT assay relative to control; assay type: functional; settings: read-out: Survival
[46] = tested on: K562; assay: Survival of human K562 cells at 0.1 uM under deem light after 96 hrs by MTT assay relative to control; assay type: functional; settings: K562, 96 h, read-out: Survival
[47] = Survival of human 2780.9S cells at 100 uM under deem light after 96 hrs by MTT assay relative to control; assay type: functional; settings: read-out: Survival
[48] = tested on: HeLa; assay: Survival of human HeLa cells at 15.7 uM under deem light after 96 hrs by MTT assay relative to control; assay type: functional; settings: read-out: Survival
[49] = Survival of human MDA-MB cells at 10 uM under deem light after 96 hrs by MTT assay relative to control; assay type: functional; settings: read-out: Survival
[50] = Survival of human MDA-MB cells at 1 uM under deem light after 96 hrs by MTT assay relative to control; assay type: functional; settings: read-out: Survival
[51] = tested on: NCI-H69; assay: Survival of human H69 cells at 15.7 uM under deem light after 96 hrs by MTT assay relative to control; assay type: functional; settings: NCI-H69, 96 h, read-out: Survival

With `CCCOC(C)C1=C(C)c2cc3[nH]c(cc4nc(cc5[nH]c(cc1n2)c(C)c5CCC(=O)NCCO)C(CCC(=O)NCCO)=C4C)c(C)c3C(C)OCCC` (stereo unspecified) [HEMATOPORPHYRIN PROPYLETHER ETHANOLAMIDE] the viability at 1 µM [1] was 100%, the viability at 100 µM [2] was 5.4% and the IC50 [3] was 22 µM. The hemolysis at 10 min, 0.125 µM [4] was 100%, the IC50 [5] was 22 µM and the IC50 [6] was 12 µM. The viability at 100 µM [7] was 9.8%, the viability at 0.1 µM [8] was 137% and the viability at 100 µM [9] was 6.7%. The viability at 1 µM [10] was 84.7%, the viability at 100 µM [11] was 6.67% and the viability at 100 µM [12] was 5.2%. The viability at 0.1 µM [13] was 96.1%, the viability at 50 µM [14] was 8.6% and the viability at 15.7 µM [15] was 28.5%. It also gave a viability at 50 µM [16] of 5.9%, a viability at 15.7 µM [17] of 24.3% and a viability at 1 µM [18] of 119%. The viability at 1 µM [19] was 105%, the viability at 100 µM [20] was 14.4% and the viability at 50 µM [21] was 7.4%. For the same compound, the viability at 15.7 µM [22] was 19.3%, the viability at 1 µM [23] was 99.5% and the viability at 0.1 µM [24] was 106%. It also gave a viability at 0.1 µM [25] of 99.6%, an IC50 [26] of 16 µM and a viability at 0.1 µM [27] of 95.5%. It also gave a viability at 50 µM [28] of 2.2%, a viability at 15.7 µM [29] of 16.1% and a viability at 1 µM [30] of 100%. The viability at 1 µM [31] was 97%, the IC50 [32] was 21 µM and the Activity [33] was “Non-toxic”. The HC50 at 10 min [34] was 210 nM, the viability at 15.7 µM [35] was 23.6% and the IC50 [36] was 44 µM. It also gave a viability at 0.1 µM [37] of 97.8%, a viability at 50 µM [38] of 5.7% and an IC50 [39] of 21 µM. The IC50 [40] was 22 µM, the viability at 50 µM [41] was 7.4% and the viability at 50 µM [42] was 16.1%. The HC50 at 5 min [43] was 90 nM, the viability at 50 µM [44] was 12.3% and the viability at 100 µM [45] was 10.5%. The viability at 0.1 µM [46] was 72.9%, the viability at 100 µM [47] was 6.5% and the viability at 15.7 µM [48] was 7.8%. The viability at 10 µM [49] was 104%, the viability at 1 µM [50] was 112% and the viability at 15.7 µM [51] was 17.1%.
